From US20230002359A1, “PESTICIDALLY ACTIVE FUSED BICYCLIC HETEROAROMATIC COMPOUNDS” (priority 2019, published 2023) come the findings set out here.

Holding throughout (type): in vivo
For test [1], the system named is Diabrotica Balteata (Corn Root Worm). Briefly: Example B1: Diabrotica balteata (corn root worm), maize sprouts sprayed, L2 larvae. To be noted: 96 h, application rate of 200 ppm, 4 days after infestation, L2 larvae, read-out: control in at least one of the two categories (mortality or growth inhibition). As for the experimental part: Maize sprouts placed onto an agar layer in 24-well microtiter plates were treated with aqueous test solutions prepared from 10′000 ppm DMSO stock solutions by spraying. After drying, the plates were infested with L2 larvae (6 to 10 per well). The samples were assessed for mortality and growth inhibition in comparison to untreated samples 4 days after infestation.

In test [2] the test system is Plutella xylostella (Diamond Back Moth). The test is described as follows: Example B4: Plutella xylostella (diamond back moth), artificial diet, eggs, 24-well. To be noted: 192 h, application rate of 200 ppm, 8 days after infestation, eggs, read-out: control in at least one of the two categories (mortality or growth inhibition). Here is the method: 24-well microtiter plates with artificial diet were treated with aqueous test solutions prepared from 10′000 ppm DMSO stock solutions by pipetting. After drying, Plutella eggs were pipetted through a plastic stencil onto a gel blotting paper and the plate was closed with it. The samples were assessed for mortality and growth inhibition in comparison to untreated samples 8 days after infestation.

In test [3] the test system is Spodoptera littoralis (Egyptian Cotton Leaf Worm). Briefly: Example B7: Spodoptera littoralis (Egyptian cotton leaf worm), cotton leaf discs sprayed, L1 larvae. Particulars: foliar, 72 h, application rate of 200 ppm, 3 days after infestation, L1 larvae, read-out: control in at least one of the three categories (mortality, anti-feedant effect, or growth inhibition). As for the experimental part:
Cotton leaf discs were placed onto agar in 24-well microtiter plates and sprayed with aqueous test solutions prepared from 10′000 ppm DMSO stock solutions. After drying the leaf discs were infested with five L1 larvae. The samples were assessed for mortality, anti-feeding effect, and growth inhibition in comparison to untreated samples 3 days after infestation. Control of Spodoptera littoralis by a test sample is given when at least one of the categories mortality, anti-feedant effect, and growth inhibition is higher than the untreated sample.

The test system of test [4] is Chilo suppressalis (Striped Rice Stemborer). The test is described as follows: Example B3: Chilo suppressalis (striped rice stemborer), artificial diet, L2 larvae. Particulars: 144 h, application rate of 200 ppm, 6 days after infestation, L2 larvae, read-out: control in at least one of the three categories (mortality, anti-feedant effect, or growth inhibition). As for the experimental part: 24-well microtiter plates with artificial diet were treated with aqueous test solutions prepared from 10′000 ppm DMSO stock solutions by pipetting. After drying, the plates were infested with L2 larvae (6-8 per well). The samples were assessed for mortality, anti-feeding effect, and growth inhibition in comparison to untreated samples 6 days after infestation. Control of Chilo suppressalis by a test sample is given when at least one of the categories mortality, anti-feedant effect, and growth inhibition is higher than the untreated sample.

`C[C@H](Nc1ccnc2c(C(F)(F)F)cc(Br)cc12)c1ncnn1-c1ccc(C#N)cn1` [P.252, 6-[5-[(1S)-1-[[6-bromo-8-(trifluoromethyl)-4-quinolyl]amino]ethyl]-1,2,4-triazol-1-yl]pyridine-3-carbonitrile]: the percent control (mortality or growth inhibition) at 200 ppm in test [1] and in test [2] was at least 80% throughout. The percent control (mortality, anti-feedant effect or growth inhibition) at 200 ppm in test [3] and in test [4] was at least 80% throughout.
On to `CC(c1nccnc1-n1nccn1)N(C)c1ncnc2c(Br)cc(C(F)(F)F)cc12` (centres unmarked) [P.104, 8-bromo-N-methyl-N-[1-[3-(triazol-2-yl)pyrazin-2-yl]ethyl]-6-(trifluoromethyl)quinazolin-4-amine], for which the percent control (mortality or growth inhibition) at 200 ppm in test [1] and in test [2] was at least 80% throughout. In addition, the percent control (mortality, anti-feedant effect or growth inhibition) at 200 ppm in test [3] and in test [4] was at least 80% throughout.
Consider `CC(Nc1ncnc2c(C(F)(F)F)cc(Cl)cc12)c1ncnn1-c1ccc(C#N)cn1` (centres unmarked) [P.41, 6-[5-[1-[[6-chloro-8-(trifluoromethyl)quinazolin-4-yl]amino]ethyl]-1,2,4-triazol-1-yl]pyridine-3-carbonitrile], for which the percent control (mortality or growth inhibition) at 200 ppm in test [2] was at least 80%. Besides, the percent control (mortality, anti-feedant effect or growth inhibition) at 200 ppm in test [3] and in test [4] was at least 80% in each case.
On to `C[C@@H](c1ncnn1-c1ccc(C#N)cn1)N(C)c1ncnc2c(C(F)(F)F)cc(Br)cc12` [P.204, 6-[5-[(1S)-1-[[6-bromo-8-(trifluoromethyl)quinazolin-4-yl]-methyl-amino]ethyl]-1,2,4-triazol-1-yl]pyridine-3-carbonitrile], for which the percent control (mortality or growth inhibition) at 200 ppm in test [2] was at least 80%. In addition, the percent control (mortality, anti-feedant effect or growth inhibition) at 200 ppm in test [3] was at least 80%.
Regarding `CC(Nc1ncnc2c(C(F)(F)F)cc(Br)cc12)c1ncnn1-c1ccc(OC(F)F)cn1` (centres unmarked) [P.195, 6-bromo-N-[1-[2-[5-(difluoromethoxy)-2-pyridyl]-1,2,4-triazol-3-yl]ethyl]-8-(trifluoromethyl)quinazolin-4-amine], the percent control (mortality, anti-feedant effect or growth inhibition) at 200 ppm in test [3] and in test [4] was at least 80% in each case.
On to `C[C@H](c1ncnn1-c1ccc(C#N)cn1)N(C)c1ncnc2c(C(F)(F)F)cc(C(F)(F)F)cc12` [P.53, 6-[5-[(1R)-1-[[6,8-bis(trifluoromethyl)quina-zolin-4-yl]-methyl-amino]ethyl]-1,2,4-triazol-1-yl]pyridine-3-carbonitrile], for which, in test [2], the percent control (mortality or growth inhibition) at 200 ppm is at least 80%. Besides, the percent control (mortality, anti-feedant effect or growth inhibition) at 200 ppm in test [3] and in test [4] was at least 80% throughout.
Take `CC(Nc1ncnc2c(Cl)cc(C(F)(F)F)cc12)c1nccnc1-c1ccc(C#N)cn1` (centres unmarked) [P.121, 6-[3-[1-[[8-chloro-6-(trifluoromethyl)quinazolin-4-yl]amino]ethyl]pryazin-2-yl]pyridine-3-carbonitrile]: the percent control (mortality, anti-feedant effect or growth inhibition) at 200 ppm in test [3] and in test [4] was at least 80% each time.
`CC(c1nccnc1-c1ccc(C#N)cn1)N(C)c1ncnc2c(C(F)(F)F)cc(Cl)cc12` (centres unmarked) [P.275, 6-[3-[1-[[6-chloro-8-(trifluoromethyl)quinazolin-4-yl]-methyl-amino]ethyl]pyrazin-2-yl]pyridine-3-carbonitrile]: the percent control (mortality, anti-feedant effect or growth inhibition) at 200 ppm in test [3] and in test [4] was at least 80% each time.
As to `CC(Nc1ncnc2c(Br)cc(OC(F)(F)F)cc12)c1ncnn1-c1ccc(C#N)cn1` (centres unmarked) [P.246, 6-[5-[1-[[8-bromo-6-(trifluoromethoxy)quinazo-lin-4-yl]amino]ethyl]-1,2,4-triazol-1-yl]pyridine-3-carbonitrile], the percent control (mortality or growth inhibition) at 200 ppm in test [2] was at least 80%. Besides, the percent control (mortality, anti-feedant effect or growth inhibition) at 200 ppm in test [3] and in test [4] was at least 80% in each case.
Take `CC(Nc1ncnc2c(C(F)(F)F)cc(Cl)cc12)c1ncnn1-c1ccc(F)cn1` (centres unmarked) [P.234, 6-chloro-N-[1-[2-(5-fluroo-2-pyridyl)-1,2,4-triazol-3-yl]ethyl]-8-(trifluoromethyl)quinazolin-4-amine]: the percent control (mortality or growth inhibition) at 200 ppm in test [1] and in test [2] was at least 80% throughout. Also, in test [3], the percent control (mortality, anti-feedant effect or growth inhibition) at 200 ppm is at least 80%.
In the case of `CC(Nc1ncnc2c(Cl)cc(C(F)(F)F)cc12)c1ncnn1-c1ccc(C#N)cn1` (centres unmarked) [P.45, 6-[5-[1-[[8-chloro-6-(trifluoromethyl)quinazolin-4-yl]amino]ethyl]-1,2,4-triazol-1-yl]pyridine-3-carbonitrile], the percent control (mortality or growth inhibition) at 200 ppm in test [2] is at least 80%. Also, the percent control (mortality, anti-feedant effect or growth inhibition) at 200 ppm in test [3] and in test [4] was at least 80% throughout.
`CC(Nc1nc(Cl)nc2c(C(F)(F)F)cc(C(F)(F)F)cc12)c1ncnn1-c1ncccn1` (centres unmarked) [P.25, 2-chloro-N-[1-(2-pyrimidin-2-yl-1,2,4-triazol-3-yl)ethyl]-6,8-bis(trifluoromethyl)quinazolin-4-amine]: in test [1], the percent control (mortality or growth inhibition) at 200 ppm is at least 80%. The percent control (mortality, anti-feedant effect or growth inhibition) at 200 ppm in test [3] and in test [4] was at least 80% in each case.
For the molecule `CC(c1nccnc1-c1ccc(C#N)cn1)N(C)c1ncnc2c(C(F)(F)F)cc(Br)cc12` (centres unmarked) [P.125, 6-[3-[1-[[6-bromo-8-(trifluoromethyl)quinazolin-4-yl]-methyl-amino]ethyl]pyrazin-2-yl]pyridine-3-carbonitrile], the percent control (mortality or growth inhibition) at 200 ppm in test [2] is at least 80%. Further, in test [3], the percent control (mortality, anti-feedant effect or growth inhibition) at 200 ppm was at least 80%.
For the molecule `CC(Nc1ncnc2c(Cl)c(F)c(Cl)cc12)c1ncnn1-c1ncccn1` (centres unmarked) [P.166, 6,8-dichloro-7-fluoro-N-[1-(2-pyrimidin-2-yl-1,2,4-triazol-3-yl)ethyl]quinazolin-4-amine], the percent control (mortality or growth inhibition) at 200 ppm in test [1] was at least 80%. The percent control (mortality, anti-feedant effect or growth inhibition) at 200 ppm in test [3] was at least 80%.
For `CC(Nc1ncnc2c(Br)cc(C(F)(F)F)cc12)c1ncnn1-c1ccc(C#N)cn1` (centres unmarked) [P.42, 6-[5-[1-[[8-bromo-6-(trifluoromethyl)quinazolin-4-yl]amino]ethyl]-1,2,4-triazol-1-yl]pyridine-3-carbonitrile], the percent control (mortality or growth inhibition) at 200 ppm in test [2] is at least 80%. Further, the percent control (mortality, anti-feedant effect or growth inhibition) at 200 ppm in test [3] and in test [4] was at least 80% each time.
Take `CC(Nc1ncnc2c(Br)cc(C(F)(F)F)cc12)c1ncnn1-c1ccc(F)cn1` (centres unmarked) [P.186, 8-bromo-N-[1-[2-(5-fluoro-2-pyridyl)-1,2,4-triazol-3-yl]ethyl]-6-(trifluoromethyl)quinazolin-4-amine]: the percent control (mortality or growth inhibition) at 200 ppm in test [1] and in test [2] was at least 80% each time. In addition, the percent control (mortality, anti-feedant effect or growth inhibition) at 200 ppm in test [4] is at least 80%.
On to `CC(c1nccnc1-c1ccc(C#N)cn1)N(CC1CC1)c1ncnc2c(Cl)cc(C(F)(F)F)cc12` (centres unmarked) [P.72, 6-[3-[1-[[8-chloro-6-(trifluoromethyl)quinazolin-4-yl]-(cyclopropylmethyl)amino]ethyl]pyrazin-2-yl]pyridine-3-carbonitrile], for which the percent control (mortality or growth inhibition) at 200 ppm in test [1] and in test [2] was at least 80% in each case. In addition, the percent control (mortality, anti-feedant effect or growth inhibition) at 200 ppm in test [4] was at least 80%.
Consider `CC(c1nccnc1-n1nccn1)N(C)c1ncnc2c(Br)cc(OC(F)(F)F)cc12` (centres unmarked) [P.179, 8-bromo-N-methyl-N-[1-[3-(triazol-2-yl)pyrazin-2-yl]ethyl]-6-(trifluoromethoxy)quinazo-lin-4-amine], for which the percent control (mortality or growth inhibition) at 200 ppm in test [1] and in test [2] was at least 80% throughout. Moreover, in test [4], the percent control (mortality, anti-feedant effect or growth inhibition) at 200 ppm is at least 80%.
Turning to `CC(c1nccnc1-c1ncccn1)N(CC1CC1)c1ncnc2c(Cl)cc(C(F)(F)F)cc12` (centres unmarked) [P.81, 8-chloro-N-(cyclopropylmethyl)-N-[1-(3-pyrimidin-2-ylpyrazin-2-yl)ethyl]-6-(trifluoromethyl)quinazolin-4-amine], the percent control (mortality or growth inhibition) at 200 ppm in test [1] and in test [2] was at least 80% throughout. Further, in test [4], the percent control (mortality, anti-feedant effect or growth inhibition) at 200 ppm is at least 80%.
